Assay results: US9969746B2, “Opioid compounds and their uses” (THE UNIVERSITY OF BATH, priority 2013, dated 2018)

Key:
NOP [1] = target: T1, NOP (Homo sapiens, UniProt P41146); assay: Binding affinity to human NOP receptor transfected into CHO cells ([3H]N/OFQ)
T1 construct: expressed in transfected cells; host or cells: CHO cells (membranes)

MOP [2] = target: T2, MOP (Homo sapiens, UniProt P35372); assay: biochemical; assay type: binding; details: [3H]DAMGO, membranes of CHO cells with human receptor
T2 construct: expressed in transfected cells; host or cells: CHO cells (membranes)
T2 sequence (P35372 whole entry): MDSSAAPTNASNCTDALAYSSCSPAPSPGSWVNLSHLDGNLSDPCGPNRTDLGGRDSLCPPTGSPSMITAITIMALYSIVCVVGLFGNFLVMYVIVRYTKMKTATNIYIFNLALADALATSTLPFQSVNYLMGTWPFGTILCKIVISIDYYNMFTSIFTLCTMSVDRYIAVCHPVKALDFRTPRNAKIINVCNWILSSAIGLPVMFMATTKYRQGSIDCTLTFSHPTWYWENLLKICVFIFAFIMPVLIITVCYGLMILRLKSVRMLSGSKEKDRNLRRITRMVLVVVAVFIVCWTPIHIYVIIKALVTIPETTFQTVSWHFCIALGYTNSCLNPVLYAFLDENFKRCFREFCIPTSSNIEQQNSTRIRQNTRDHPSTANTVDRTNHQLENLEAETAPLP

KOP = target: T3, KOP (Homo sapiens, UniProt P41145); assay: biochemical; assay type: binding; details: [3H]U69593, membranes of CHO cells with human receptor
T3 construct: expressed in transfected cells; host or cells: CHO cells (membranes)
T3 sequence (P41145 whole entry): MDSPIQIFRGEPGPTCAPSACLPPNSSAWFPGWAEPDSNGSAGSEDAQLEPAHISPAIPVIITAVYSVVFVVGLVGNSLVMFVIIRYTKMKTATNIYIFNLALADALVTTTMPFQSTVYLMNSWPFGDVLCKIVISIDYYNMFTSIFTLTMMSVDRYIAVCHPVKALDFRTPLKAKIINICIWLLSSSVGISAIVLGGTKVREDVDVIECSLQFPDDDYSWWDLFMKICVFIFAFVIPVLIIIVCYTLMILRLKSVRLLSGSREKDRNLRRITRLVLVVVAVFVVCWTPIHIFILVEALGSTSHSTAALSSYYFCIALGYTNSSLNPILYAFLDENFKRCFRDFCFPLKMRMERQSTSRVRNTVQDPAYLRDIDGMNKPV

MOP [3] = target: T2, MOP; assay: [35S]GTPγS binding, MOP; assay type: biochemical; details: 1 h; read-out: % stim MOP
Description: (§1) [^35S]GTPγS binding was conducted basically as described by Traynor and Nahorski (Traynor et al., 1995). Cells were scraped from tissue culture dishes into 20 mM Hepes, 1 mM EDTA, then centrifuged at 500×g for 10 min. Cells were resuspended in this buffer and homogenized using a Polytron Homogenizer. The homogenate was centrifuged at 27,000×g for 15 min, and the pellet re suspended in Buffer A, containing: 20 mM Hepes, 10 mM MgCl2, 100 mM NaCl, pH 7.4. The suspension was re centrifuged at 27,000×g and suspended once more in Buffer A. For the binding assay, membranes (8-15 μg protein) were incubated with [^35S]GTPγS (50 pM), GDP (10 μM), and the appropriate compound, in a total volume of 1.0 ml, for 60 min at 25′C. Samples were filtered over glass fiber filters and counted as described for the binding assays. Statistical analysis was conducted using the program Prism®.

NOP [4] = target: T1, NOP; assay: [35S]GTPγS binding, NOP; assay type: biochemical; details: 1 h; read-out: % stim NOP
Description: as §1

KOPr = target: T4, KOPr (Homo sapiens, UniProt P41145); assay: [35S]GTPγS binding, KOPr; assay type: biochemical
T4 construct: expressed in transfected cells
T4 sequence (P41145 whole entry): as above
Description: as §1

[5] = test system: carrageenan-induced thermal hyperalgesia; assay: Carrageenan-induced thermal hyperalgesia (paw withdrawal latency); assay type: in vivo
Description: Compound 11 was tested for its effect on carrageenan-induced thermal hyperalgesia measured by paw withdrawal latency (FIG. 1a) and anti-hyperalgesic effect (FIG. 1b).

rhesus monkeys [6] = assay: Antinociception against acute noxious stimulus (50° C. water); assay type: in vivo
Excerpt: (§2) These findings illustrate the safe and favorable profile of 11.

rhesus monkeys [7] = assay: Physiological functions of monkeys (respiration, heart rate, blood pressure); assay type: in vivo; details: 0.01 mg/kg s.c.
Excerpt: as §2

rhesus monkeys [8] = assay: Operant responding assay (self-administration); assay type: in vivo
Excerpt: as §2

rhesus monkeys [9] = assay: Scratching responses and sedation after intrathecal administration; assay type: in vivo; details: intrathecal 3 μg
Excerpt: as §2

T1 sequence (P41146 whole entry): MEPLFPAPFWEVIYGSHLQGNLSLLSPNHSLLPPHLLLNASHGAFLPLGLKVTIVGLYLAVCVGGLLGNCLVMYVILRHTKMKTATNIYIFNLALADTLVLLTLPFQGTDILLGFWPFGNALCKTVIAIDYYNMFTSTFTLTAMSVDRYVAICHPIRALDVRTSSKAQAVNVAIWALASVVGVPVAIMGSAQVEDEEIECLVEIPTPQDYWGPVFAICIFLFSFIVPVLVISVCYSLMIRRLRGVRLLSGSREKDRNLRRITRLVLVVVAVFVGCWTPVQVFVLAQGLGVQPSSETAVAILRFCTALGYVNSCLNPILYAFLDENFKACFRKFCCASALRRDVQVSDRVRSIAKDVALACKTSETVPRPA

SMILES	Ki (NOP [1]) [nM]	Ki (MOP [2]) [nM]	Ki (KOP) [nM]	Emax (MOP [3]) [%]	Emax (NOP [4]) [%]	stimulation of the KOPr (KOPr)	other results
COc1cccc(CC(=O)O[C@@]23CCC(=O)[C@@H]4Oc5c(O)ccc6c5[C@@]42CCN(CC2CC2)C3C6)c1 [Compound 5, 14β-(3′-methoxyphenylacetyl)-17-cyclopropylmethyl-7,8-dihydronoroxymorphinone]	50.1 ± 2.7	1.1 ± 0.08	1.44 ± 0.33	11	36	–	–
O=C(Cc1ccccc1F)O[C@@]12CCC(=O)[C@@H]3Oc4c(O)ccc5c4[C@@]31CCN(CC1CC1)C2C5 [Compound 8, 14β-(2′-fluorophenylacetyl)-17-cyclopropylmethyl-7,8-dihydronoroxymorphinone]	69.7 ± 2.4	2.59 ± 1.1	4.55 ± 0.7	28	15	–	–
O=C(Cc1ccc(Cl)cc1)O[C@@]12CCC(=O)[C@@H]3Oc4c(O)ccc5c4[C@@]31CCN(CC1CC1)C2C5 [Compound 9, 14β-(4′-chlorophenylacetyl)-17-cyclopropylmethyl-7,8-dihydronoroxymorphinone]	51.3 ± 14	1.78 ± 0.03	3.95 ± 0.59	8.2	19	–	–
Cc1ccc(CCC(=O)O[C@@]23CCC(=O)[C@@H]4Oc5c(O)ccc6c5[C@@]42CCN(CC2CC2)C3C6)cc1 [Compound 18, 14β-(4′-methylphenylpropanoyl)-17-cyclopropylmethyl-7,8-dihydronoroxymorphinone]	35.8 ± 1.6	0.78 ± 0.22	1.06 ± 0.4	25	63	–	–
O=C(Cc1ccccc1Cl)O[C@@]12CCC(=O)[C@@H]3Oc4c(O)ccc5c4[C@@]31CCN(CC1CC1)C2C5 [Compound 10, 14β-(2′-chlorophenylacetyl)-17-cyclopropylmethyl-7,8-dihydronoroxymorphinone]	32.6 ± 2.3	4.66 ± 1.8	1.34 ± 0.5	39	50	–	–
COc1ccc(CCC(=O)O[C@@]23CCC(=O)[C@@H]4Oc5c(O)ccc6c5[C@@]42CCN(CC2CC2)C3C6)cc1 [Compound 12, 14β-(4′-methoxyphenylpropanoyl)-17-cyclopropylmethyl-7,8-dihydronoroxymorphinone]	766 ± 177	0.91 ± 0.12	1.96 ± 0.04	–	52	no stimulation	–
Cc1ccccc1CCC(=O)O[C@@]12CCC(=O)[C@@H]3Oc4c(O)ccc5c4[C@@]31CCN(CC1CC1)C2C5 [Compound 19, 14β-(2′-methylphenylpropanoyl)-17-cyclopropylmethyl-7,8-dihydronoroxymorphinone]	12.1 ± 2.7	0.56 ± 0.11	0.64 ± 0.1	48	33	–	–
COc1ccccc1CCC(=O)O[C@@]12CCC(=O)[C@@H]3Oc4c(O)ccc5c4[C@@]31CCN(CC1CC1)C2C5 [Compound 14, 14β-(2′-methoxyphenylpropanoyl)-17-cyclopropylmethyl-7,8-dihydronoroxymorphinone]	120 ± 20.5	1.67 ± 0.42	1.24 ± 0.11	–	56	no stimulation	–
COc1ccccc1CC(=O)O[C@@]12CCC(=O)[C@@H]3Oc4c(O)ccc5c4[C@@]31CCN(CC1CC1)C2C5 [Compound 7, 14β-(2′-methoxyphenylacetyl)-17-cyclopropylmethyl-7,8-dihydronoroxmorphinone]	62.3 ± 4.9	3.77 ± 0.9	3.52 ± 0.9	37	41	–	–
Cc1cccc(CC(=O)O[C@@]23CCC(=O)[C@@H]4Oc5c(O)ccc6c5[C@@]42CCN(CC2CC2)C3C6)c1 [Compound 4]	49.9 ± 3.5	1.91 ± 0.51	2.8 ± 0.91	40	59	–	–
O=C(CCc1ccccc1)O[C@@]12CCC(=O)[C@@H]3Oc4c(O)ccc5c4[C@@]31CCN(CC1CC1)C2C5 [Compound 11, 14β-Phenylpropanoyl-17-cyclopropylmethyl-7,8-dihydronoroxymorphinone]	14.8 ± 0.94	0.86 ± 0.23	10.5 ± 0.17	18	34	no stimulation	reversal of 11-induced reversal of thermal hyperalgesia by pretreatment with NOP receptor antagonist J113397 ([5]; J113397 pretreatment): partially reverse; effect on carrageenan-induced thermal hyperalgesia (paw withdrawal latency, anti-hyperalgesic effect) ([5]; intrathecal): efficacious and long acting; reversal of 11-induced reversal of thermal hyperalgesia by pretreatment with MOP receptor antagonist naltrexone ([5]; naltrexone pretreatment): partially reverse; antinociceptive effect (rhesus monkeys [6]; 0.01 mg/kg s.c., rhesus monkeys): full antinociceptive effects; antinociceptive effect (rhesus monkeys [6]; intrathecal 3 μg, monkeys): full antinociceptive effects; duration of full antinociceptive effects (rhesus monkeys [6]; intrathecal 3 μg, monkeys): 24 h; duration of antinociception (rhesus monkeys [6]; s.c. 0.001-0.01 mg/kg, rhesus monkeys): ~24 h; antinociception against acute noxious stimulus (50° C. water) (rhesus monkeys [6]; s.c. 0.001-0.01 mg/kg, rhesus monkeys, pilot experiments): dose-dependently produced long lasting antinociception; bradycardia and hypotension (rhesus monkeys [7]): no bradycardia and hypotension; respiratory depression (rhesus monkeys [7]): no respiratory depression; self-administration (abuse liability) (rhesus monkeys [8]): did not self-administer; scratching responses (rhesus monkeys [9]): without eliciting scratching responses; signs of sedation (rhesus monkeys [9]; during test period): did not show any signs of sedation
O=C(CCc1cccc(Cl)c1)O[C@@]12CCC(=O)[C@@H]3Oc4c(O)ccc5c4[C@@]31CCN(CC1CC1)C2C5 [Compound 17, 14β-(3′-chlorophenylpropanoyl)-17-cyclopropylmethyl-7,8-dihydronoroxymorphinone]	27 ± 4.9	0.39 ± 0.07	0.74 ± 0.05	26	22	no stimulation	–
O=C(Cc1ccc2c(c1)OCO2)O[C@@]12CCC(=O)[C@@H]3Oc4c(O)ccc5c4[C@@]31CCN(CC1CC1)C2C5 [Compound 6, 14β-(3′,4′-dioxymethylenephenylacetyl)-7-cyclopropylmethyl-7,8-dihydronoroxymorphinone]	94.3 ± 28	0.99 ± 0.35	1.2 ± 0.42	12	44	–	–
Cc1ccccc1CC(=O)O[C@@]12CCC(=O)[C@@H]3Oc4c(O)ccc5c4[C@@]31CCN(CC1CC1)C2C5 [Compound 3, 14β-(2′-methylphenylacetyl)-17-cyclopropylmethyl-7,8-dihydronoroxymorphinone]	44.1 ± 3.1	3.59 ± 0.86	1.69 ± 1.2	42	21	–	–
O=C(CCc1ccc(Cl)cc1)O[C@@]12CCC(=O)[C@@H]3Oc4c(O)ccc5c4[C@@]31CCN(CC1CC1)C2C5 [Compound 16, 14β-(4′-chlorophenylpropanoyl)-17-cyclopropylmethyl-7,8-dihydronoroxymorphinone]	45.2 ± 17.5	0.54 ± 0.11	1.34 ± 0.12	21	41	no stimulation	–
O=C(Cc1ccccc1)O[C@@]12CCC(=O)[C@@H]3Oc4c(O)ccc5c4[C@@]31CCN(CC1CC1)C2C5 [Compound 1, 14β-phenylacetyl-17-cyclopropylmethyl-7,8-dihydronoroxmorphinone]	127 ± 17	0.86 ± 0.18	1.14 ± 0.46	32	28	–	–
Cc1cccc(CCC(=O)O[C@@]23CCC(=O)[C@@H]4Oc5c(O)ccc6c5[C@@]42CCN(CC2CC2)C3C6)c1 [Compound 15, 14β-(3′-methylphenylpropanoyl)-17-cyclopropylmethyl-7,8-dihydronoroxymorphinone]	37.7 ± 2.6	0.91 ± 0.1	1.56 ± 0.2	23	–	–	–
COc1cccc(CCC(=O)O[C@@]23CCC(=O)[C@@H]4Oc5c(O)ccc6c5[C@@]42CCN(CC2CC2)C3C6)c1 [Compound 13, 14β-(3′-methoxyphenylpropanoyl)-17-cyclopropylmethyl-78-dihydronoroxymorphinone]	154 ± 11.5	1.14 ± 0.18	1.24 ± 0.15	–	46	no stimulation	–
Cc1ccc(CC(=O)O[C@@]23CCC(=O)[C@@H]4Oc5c(O)ccc6c5[C@@]42CCN(CC2CC2)C3C6)cc1 [Compound 2, 14β-(4′-methylphenylacetyl)-17-cyclopropylmethyl-7,8-dihydronoroxymorphinone]	36.3 ± 4.2	1.87 ± 0.09	1.56 ± 0.28	35	22	–	–
